Experimental data reported in ChEMBL document CHEMBL4376850, “1-Benzylpyrrolidine-3-amine-based BuChE inhibitors with anti-aggregating, antioxidant and metal-chelating properties as multifunctional agents against Alzheimer's disease” (Eur J Med Chem, 2020).
Calls of active or inactive are those of the source. The rule behind the calls is not given here.

Key:
[1] = molecular target: Amyloid-beta precursor protein (Homo sapiens) (UniProt P05067); conditions: at 10 µM
Description: Inhibition of amyloid beta (1 to 42) (unknown origin) aggregation at 10 uM expressed in Escherichia coli BL21 (DE3) incubated for 24 hrs by thioflavin T-based fluorometric assay relative to control

[2] = Antioxidant activity assessed as ABTS radical scavenging activity at 30 uM measured after 30 mins by spectrophotometric assay relative to control; assay type: functional
[3] = Antioxidant activity assessed as ABTS radical scavenging activity at 75 uM measured after 60 mins by spectrophotometric assay relative to control; assay type: functional
[4] = molecular target: Microtubule-associated protein tau (Homo sapiens) (UniProt P10636); test: Inhibition of tau aggregation (unknown origin) at 10 uM expressed in Escherichia coli BL21 (DE3) incubated for 24 hrs by thioflavin T-based fluorometric assay relative to control
[5] = Antioxidant activity assessed as ABTS radical scavenging activity at 30 uM measured after 60 mins by spectrophotometric assay relative to control; assay type: functional
[6] = Antioxidant activity assessed as increase in total ferric ion reducing activity at 30 uM using FeCl3.H2O and TPTZ incubated for 60 mins by FRAP assay relative to control; assay type: functional; parameters: scale not given: the % may be the effect or the level left
[7] = molecular target: Cholinesterase (Equus caballus) (UniProt P81908); test: Inhibition of equine serum BuChE at 10 uM using butyrylthiocholine chloride as substrate pre-incubated for 5 mins followed by substrate addition and measured after 5 mins by Ellman's method relative to control
Beta-secretase 1 = Beta-secretase 1 (Homo sapiens, UniProt P56817); conditions: 50 uM
[8] = molecular target: Acetylcholinesterase (Electrophorus electricus) (UniProt O42275); test: Inhibition of Electrophorus electricus AChE at 10 uM using acetylthiocholine iodide as substrate preincubated for 5 mins followed by substrate addition and measured after 5 mins by Ellman's method relative to control
[9] = Antioxidant activity assessed as ABTS radical scavenging activity at 150 uM measured after 60 mins by spectrophotometric assay relative to control; assay type: functional
[10] = Antioxidant activity assessed as ABTS radical scavenging activity at 150 uM measured after 30 mins by spectrophotometric assay relative to control; assay type: functional
[11] = Antioxidant activity assessed as ABTS radical scavenging activity at 75 uM measured after 30 mins by spectrophotometric assay relative to control; assay type: functional
[12] = Antioxidant activity assessed as ABTS radical scavenging activity at 150 uM measured after 5 mins by spectrophotometric assay relative to control; assay type: functional
[13] = Antioxidant activity assessed as ABTS radical scavenging activity at 75 uM measured after 5 mins by spectrophotometric assay relative to control; assay type: functional
[14] = Antioxidant activity assessed as increase in total ferric ion reducing activity at 75 uM using FeCl3.H2O and TPTZ incubated for 60 mins by FRAP assay relative to control; assay type: functional; parameters: scale not given: the % may be the effect or the level left
[15] = Antioxidant activity assessed as increase in total ferric ion reducing activity at 75 uM using FeCl3.H2O and TPTZ incubated for 30 mins by FRAP assay relative to control; assay type: functional; parameters: scale not given: the % may be the effect or the level left
[16] = Antioxidant activity assessed as ABTS radical scavenging activity at 30 uM measured after 5 mins by spectrophotometric assay relative to control; assay type: functional
[17] = Antioxidant activity assessed as increase in total ferric ion reducing activity at 150 uM using FeCl3.H2O and TPTZ incubated for 30 mins by FRAP assay relative to control; assay type: functional; parameters: scale not given: the % may be the effect or the level left
[18] = Metal chelating activity assessed as Cu2+-compound complex formation at 50 uM after 30 mins by UV-Visible spectrophotometric method
[19] = Antioxidant activity assessed as increase in total ferric ion reducing activity at 75 uM using FeCl3.H2O and TPTZ incubated for 5 mins by FRAP assay relative to control; assay type: functional; parameters: scale not given: the % may be the effect or the level left
[20] = Antioxidant activity assessed as increase in total ferric ion reducing activity at 150 uM using FeCl3.H2O and TPTZ incubated for 60 mins by FRAP assay relative to control; assay type: functional; parameters: scale not given: the % may be the effect or the level left
[21] = Antioxidant activity assessed as increase in total ferric ion reducing activity at 150 uM using FeCl3.H2O and TPTZ incubated for 5 mins by FRAP assay relative to control; assay type: functional; parameters: scale not given: the % may be the effect or the level left
[22] = Antioxidant activity assessed as increase in total ferric ion reducing activity at 30 uM using FeCl3.H2O and TPTZ incubated for 30 mins by FRAP assay relative to control; assay type: functional; parameters: scale not given: the % may be the effect or the level left
[23] = Antioxidant activity assessed as increase in total ferric ion reducing activity at 30 uM using FeCl3.H2O and TPTZ incubated for 5 mins by FRAP assay relative to control; assay type: functional; parameters: scale not given: the % may be the effect or the level left
Cholinesterase = Cholinesterase (Equus caballus, UniProt P81908)
Cholinesterase, sequence (P81908 whole entry): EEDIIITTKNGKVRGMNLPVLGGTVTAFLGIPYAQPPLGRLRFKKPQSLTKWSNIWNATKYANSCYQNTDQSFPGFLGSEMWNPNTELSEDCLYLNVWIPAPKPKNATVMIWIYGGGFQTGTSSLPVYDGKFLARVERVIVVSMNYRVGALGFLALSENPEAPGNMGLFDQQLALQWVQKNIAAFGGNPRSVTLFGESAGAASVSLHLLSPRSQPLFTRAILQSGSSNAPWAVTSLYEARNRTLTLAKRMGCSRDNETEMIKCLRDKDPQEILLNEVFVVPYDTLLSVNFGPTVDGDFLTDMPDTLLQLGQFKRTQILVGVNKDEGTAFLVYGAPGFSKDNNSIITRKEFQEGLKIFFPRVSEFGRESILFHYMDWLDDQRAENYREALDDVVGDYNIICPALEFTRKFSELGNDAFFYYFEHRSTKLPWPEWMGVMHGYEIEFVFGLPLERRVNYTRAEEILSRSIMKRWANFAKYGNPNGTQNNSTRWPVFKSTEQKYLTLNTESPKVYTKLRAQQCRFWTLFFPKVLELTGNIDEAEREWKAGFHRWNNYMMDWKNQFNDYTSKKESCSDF
Description: Inhibition of equine serum BuChE using butyrylthiocholine chloride as substrate pre-incubated for 5 mins followed by substrate addition and measured after 5 mins by Ellman's method

Amyloid-beta precursor protein (Homo sapiens), sequence (P05067 whole entry): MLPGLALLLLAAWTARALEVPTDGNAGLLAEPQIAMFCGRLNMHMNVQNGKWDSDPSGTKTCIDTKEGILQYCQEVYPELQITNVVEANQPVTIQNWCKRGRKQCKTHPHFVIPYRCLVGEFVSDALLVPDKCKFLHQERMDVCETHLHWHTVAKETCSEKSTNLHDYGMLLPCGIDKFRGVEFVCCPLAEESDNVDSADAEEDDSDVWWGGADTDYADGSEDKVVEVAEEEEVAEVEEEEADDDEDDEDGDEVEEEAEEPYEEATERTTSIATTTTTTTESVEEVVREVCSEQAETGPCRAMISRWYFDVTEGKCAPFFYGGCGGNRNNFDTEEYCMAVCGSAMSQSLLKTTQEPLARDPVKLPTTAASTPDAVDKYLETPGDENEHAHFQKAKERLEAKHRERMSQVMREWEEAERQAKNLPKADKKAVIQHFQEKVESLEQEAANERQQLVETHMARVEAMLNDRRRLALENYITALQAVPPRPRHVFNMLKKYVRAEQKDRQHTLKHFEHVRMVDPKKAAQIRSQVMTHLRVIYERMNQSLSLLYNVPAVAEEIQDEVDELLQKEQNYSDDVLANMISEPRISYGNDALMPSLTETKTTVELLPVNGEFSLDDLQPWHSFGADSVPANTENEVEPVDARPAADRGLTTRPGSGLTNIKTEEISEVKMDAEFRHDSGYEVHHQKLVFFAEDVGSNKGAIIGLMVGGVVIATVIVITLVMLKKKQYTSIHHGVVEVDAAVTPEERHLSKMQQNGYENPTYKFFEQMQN
Beta-secretase 1, sequence (P56817 whole entry): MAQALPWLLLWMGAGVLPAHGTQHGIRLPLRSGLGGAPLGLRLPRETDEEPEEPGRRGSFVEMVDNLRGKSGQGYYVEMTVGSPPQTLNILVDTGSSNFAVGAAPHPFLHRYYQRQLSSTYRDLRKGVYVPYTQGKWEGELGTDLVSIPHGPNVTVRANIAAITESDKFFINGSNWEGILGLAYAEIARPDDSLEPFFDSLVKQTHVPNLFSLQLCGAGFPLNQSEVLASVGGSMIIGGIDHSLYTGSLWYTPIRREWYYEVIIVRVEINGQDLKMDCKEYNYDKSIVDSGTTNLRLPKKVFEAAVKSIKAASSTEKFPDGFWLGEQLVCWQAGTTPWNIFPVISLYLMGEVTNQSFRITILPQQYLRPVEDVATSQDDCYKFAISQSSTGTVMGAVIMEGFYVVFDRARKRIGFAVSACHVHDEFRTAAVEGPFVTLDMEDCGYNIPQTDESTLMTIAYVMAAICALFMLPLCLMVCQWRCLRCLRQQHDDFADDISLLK
Microtubule-associated protein tau (Homo sapiens), sequence (P10636 whole entry): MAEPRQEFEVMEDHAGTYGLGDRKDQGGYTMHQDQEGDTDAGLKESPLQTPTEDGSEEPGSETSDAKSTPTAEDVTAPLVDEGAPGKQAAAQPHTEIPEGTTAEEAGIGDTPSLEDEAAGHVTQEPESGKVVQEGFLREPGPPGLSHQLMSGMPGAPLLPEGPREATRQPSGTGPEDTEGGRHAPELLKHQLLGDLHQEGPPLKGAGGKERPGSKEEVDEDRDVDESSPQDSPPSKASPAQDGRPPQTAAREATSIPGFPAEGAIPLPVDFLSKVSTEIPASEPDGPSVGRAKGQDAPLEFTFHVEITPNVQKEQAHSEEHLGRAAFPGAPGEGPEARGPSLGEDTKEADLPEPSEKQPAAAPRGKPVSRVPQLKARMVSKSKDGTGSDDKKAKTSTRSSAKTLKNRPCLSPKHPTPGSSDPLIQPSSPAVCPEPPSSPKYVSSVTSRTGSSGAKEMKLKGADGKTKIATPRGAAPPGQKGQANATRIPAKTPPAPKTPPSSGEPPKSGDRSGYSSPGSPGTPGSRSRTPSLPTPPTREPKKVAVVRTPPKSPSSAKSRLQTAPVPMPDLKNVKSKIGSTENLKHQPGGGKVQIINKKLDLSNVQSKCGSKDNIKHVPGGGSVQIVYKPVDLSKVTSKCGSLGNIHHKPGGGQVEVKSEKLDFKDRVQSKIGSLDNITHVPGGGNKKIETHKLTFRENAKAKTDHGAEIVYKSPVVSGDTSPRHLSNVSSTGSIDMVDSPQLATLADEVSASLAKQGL
Cholinesterase (Equus caballus), sequence (P81908 whole entry): as the sequence (P81908 whole entry) above
Acetylcholinesterase (Electrophorus electricus), sequence (O42275 24-633 limits assumed): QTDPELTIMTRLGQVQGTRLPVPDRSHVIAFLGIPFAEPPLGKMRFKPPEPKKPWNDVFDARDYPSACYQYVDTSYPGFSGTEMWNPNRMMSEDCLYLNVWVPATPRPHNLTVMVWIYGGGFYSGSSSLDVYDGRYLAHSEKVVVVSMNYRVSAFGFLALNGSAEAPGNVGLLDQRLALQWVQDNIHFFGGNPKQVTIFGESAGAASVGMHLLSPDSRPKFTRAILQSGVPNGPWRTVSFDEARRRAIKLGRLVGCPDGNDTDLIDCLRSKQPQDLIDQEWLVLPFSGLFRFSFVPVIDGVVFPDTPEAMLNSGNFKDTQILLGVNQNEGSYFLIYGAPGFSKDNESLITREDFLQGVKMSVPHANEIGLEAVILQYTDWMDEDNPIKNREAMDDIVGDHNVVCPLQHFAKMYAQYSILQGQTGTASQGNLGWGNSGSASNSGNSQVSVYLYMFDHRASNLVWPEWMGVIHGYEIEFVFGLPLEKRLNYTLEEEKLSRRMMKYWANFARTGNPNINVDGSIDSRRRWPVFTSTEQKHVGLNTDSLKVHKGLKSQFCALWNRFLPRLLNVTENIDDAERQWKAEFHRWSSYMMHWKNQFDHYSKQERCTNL

| Structure (SMILES) | inhibition [1] | Activity [2] | Activity [3] | inhibition [4] | Activity [5] | Activity [6] | inhibition [7] | inhibition (Beta-secretase 1) | inhibition [8] | Activity [9] | Activity [10] | Activity [11] | Activity [12] | Activity [13] | Activity [14] | Activity [15] | Activity [16] | Activity [17] | Activity [19] | Activity [20] | also measured |
| --- | --- | --- | --- | --- | --- | --- | --- | --- | --- | --- | --- | --- | --- | --- | --- | --- | --- | --- | --- | --- | --- |
| c1ccc(CN2CCC(NCCN3CCN(c4ccccc4)CC3)C2)cc1 (centres undefined) | 38.5% | 71% | 85% | 79.5% | 80% | 55% | 23.9% | 40.7% | < 10% | 99% | 98% | 78% | 76% | 50% | 68% | 54% | 42% | 68% | 23% | 79% | Activity [18]: Active; Activity [21]: 55%; Activity [22]: 39%; Activity [23]: 15% |
| O=C(CN1CCN(CCc2ccccc2)CC1)NC1CCN(Cc2ccccc2)C1 (centres undefined) | 15.2% |  |  | 61.3% |  |  | 15.3% | 48.6% | < 10% |  |  |  |  |  |  |  |  |  |  |  |  |
| c1ccc(CCC2CCCN(CCNC3CCN(Cc4ccccc4)C3)C2)cc1 (centres undefined) | 41.3% | 18% | 36% | 57.2% | 25% | 7% |  | 42.6% | 38.5% | 76% | 60% | 26% | 33% | 12% | 4% | 3% | 12% | 9% | 2% | 11% | IC50 (Cholinesterase): 3.26 µM; Activity [18]: Active; Activity [21]: 9%; Activity [22]: 6%; Activity [23]: 4% |
| c1ccc(CN2CCC(NCCN3CCC(c4ccccc4)CC3)C2)cc1 (centres undefined) | 37.4% | 24% | 48% | 68.1% | 31% | 3% | 45.5% | 11.8% | < 10% | 84% | 75% | 39% | 37% | 15% | 6% | 4% | 13% | 6% | 0% | 8% | Activity [18]: Active; Activity [21]: 10%; Activity [22]: 3%; Activity [23]: 2% |
| c1ccc(CC2CCCN(CCNC3CCN(Cc4ccccc4)C3)C2)cc1 (centres undefined) |  | 14% | 53% |  | 5% | 10% |  | 24.1% | 29.9% | 94% | 80% | 40% | 49% | 18% | 30% | 28% | 21% | 32% | 24% | 35% | IC50 (Cholinesterase): 1.94 µM; Activity [18]: Active; Activity [21]: 30%; Activity [22]: 10%; Activity [23]: 7% |
| c1ccc(CN2CCC(NCCN3CCCC(c4ccccc4)C3)C2)cc1 (centres undefined) |  | 27% | 59% |  | 38% | 15% |  | 25% | 40.8% | 96% | 85% | 47% | 54% | 24% | 25% | 22% | 14% | 36% | 15% | 39% | IC50 (Cholinesterase): 2.39 µM; Activity [18]: Active; Activity [21]: 34%; Activity [22]: 13%; Activity [23]: 11% |
| Cc1c(C)c2c(c(C)c1O)CCC(C)(C(=O)O)O2 (centres undefined) |  | 100% | 100% |  | 100% | 100% |  |  |  | 100% | 100% | 100% | 100% | 100% | 100% | 100% | 100% | 100% | 100% | 100% | Activity [21]: 100%; Activity [22]: 100%; Activity [23]: 100% |
| O=C(CN1CCCC(CCc2ccccc2)C1)NC1CCN(Cc2ccccc2)C1 (centres undefined) |  |  |  |  |  |  |  | 28.8% | 26.7% |  |  |  |  |  |  |  |  |  |  |  | IC50 (Cholinesterase): 10.3 µM |
| O=C(CN1CCCC(Cc2ccccc2)C1)NC1CCN(Cc2ccccc2)C1 (centres undefined) | 45.1% |  |  | 54.2% |  |  |  | < 10% | 27.6% |  |  |  |  |  |  |  |  |  |  |  | IC50 (Cholinesterase): 7 µM |
| O=C(CN1CCCC(c2ccccc2)C1)NC1CCN(Cc2ccccc2)C1 (centres undefined) | 38.8% |  |  | 43.6% |  |  | 46% | 14.7% | 30.6% |  |  |  |  |  |  |  |  |  |  |  |  |
| O=C(CN1CCC(CCc2ccccc2)CC1)NC1CCN(Cc2ccccc2)C1 (centres undefined) | 48.3% |  |  | 53.5% |  |  | 33.1% | 50.5% | < 10% |  |  |  |  |  |  |  |  |  |  |  |  |
| O=C(CN1CCN(C(c2ccccc2)c2ccccc2)CC1)NC1CCN(Cc2ccccc2)C1 (centres undefined) | 27.9% |  |  | 61.2% |  |  | < 10% | 40% | < 10% |  |  |  |  |  |  |  |  |  |  |  |  |
| O=C(CN1CCC(c2ccccc2)CC1)NC1CCN(Cc2ccccc2)C1 (centres undefined) | 43.7% |  |  | 53.6% |  |  | 33.3% | 48.4% | < 10% |  |  |  |  |  |  |  |  |  |  |  | Activity [18]: Active |
| O=C(CCN1CCC(CCc2ccccc2)CC1)NC1CCN(Cc2ccccc2)C1 (centres undefined) | 47.8% |  |  | 57.9% |  |  | 16.3% | < 10% | 32.9% |  |  |  |  |  |  |  |  |  |  |  |  |
| c1ccc(CCC2CCN(CCCNC3CCN(Cc4ccccc4)C3)CC2)cc1 (centres undefined) | 36.3% |  |  | 52.8% |  |  | 25.6% | 17% | 34.9% |  |  |  |  |  |  |  |  |  |  |  |  |
| O=C(CN1CCN(Cc2ccccc2)CC1)NC1CCN(Cc2ccccc2)C1 (centres undefined) | 37.4% |  |  | 66.7% |  |  | 17.8% | 40.7% | < 10% |  |  |  |  |  |  |  |  |  |  |  |  |
| O=C(CN1CCN(c2ccccc2)CC1)NC1CCN(Cc2ccccc2)C1 (centres undefined) | 34.5% | 50% | 59% | 74.8% | 62% | 49% | < 10% | 43.7% | < 10% | 76% | 66% | 49% | 36% | 23% | 60% | 44% | 23% | 58% | 14% | 72% | Activity [21]: 44%; Activity [22]: 33%; Activity [23]: 10% |
| c1ccc(CCN2CCN(CCNC3CCN(Cc4ccccc4)C3)CC2)cc1 (centres undefined) | 34.7% | 28% | 48% | 59.6% | 34% | 10% | 25.7% | 33.5% | < 10% | 82% | 73% | 41% | 46% | 22% | 18% | 15% | 14% | 40% | 5% | 43% | Activity [21]: 39%; Activity [22]: 9%; Activity [23]: 8% |
